From patent publication US20030228277A1, “Use of ROM production and release inhibitors to treat and prevent intraocular damage” (priority 2002, published 2003)

Experiments:
[1] = test system: diabetic patient manifesting proliferative diabetic retinopathy; details: ophthalmic gel containing 0.5% histamine dihydrochloride; compared with patients who received no histamine
From the text: The purpose of this treatment is to reduce the extent of proliferative diabetic retinopathy, to prevent further manifestations of the disease after removal of any extraretinal neovascularized tissue, and to reduce the likelihood of retinal detachment.
A patient presenting proliferative diabetic retinopathy receives the histamine treatment described herein in combination with surgical treatment of the neovascularized tissue.
Once diagnosed as entering the proliferative stage, the patient receives a full ophthalmic examination to establish a baseline of ocular health. […]
After treatment, the patients' eyes are examined on days one (1), two (2), seven (7), fifteen (15), thirty (30) and sixty (60). On each examination day, the patient is monitored. Additionally, the patient is monitored for posterior vitreous detachments using indirect ophthalmoscopy with scleral depression. Finally, the extent of PDR presented by the patient is continuously monitored through periodic retinal examinations and fluorescein angiograms to monitor the extent of venous beading, IRMA, retinal ischemia, neovascularization, and vitreal hemorrhage. […]

NADPH oxidase = molecular target: T1, NADPH oxidase (Homo sapiens, UniProt P04839); details: membrane bound enzyme converting oxygen to superoxide; cited from earlier work
T1 construct: host or cells: phagocytes (not specified further)

[2] = test system: patient manifesting age-related macular degeneration; assay: Treatment of age-related macular degeneration, intravitreal ROM scavenger; format: in vivo, human; details: intravitreal ophthalmic solution containing 0.75% superoxide dismutase; compared to untreated eyes
Method: A patient manifesting age-related macular degeneration is treated with an intravitreal injection of a scavenger of ROM, namely superoxide dismutase.
Once a patient reaches the age of 60, increased ophthalmic surveillance is performed to detect the presence of ADM.
When ADM is diagnosed, a regime of histamine treatment is commenced coupled with or without other treatments such as photocoagulation.
Following the preliminary examination, an intravitreal injection of superoxide dismutase is given to the patient's affected eye manifesting ADM. […] The eye to be treated is injected intravitreally with an ophthalmic solution containing 0.75% superoxide dismutase to prevent or reduce ROM mediate intraocular damage.
Because of the possibility of reoccurrence, the patient should return for periodic examinations on a monthly basis thereafter. […] Additional superoxide dismutase and/or laser treatments may be required if indicia of reoccurring neovascularization are observed.

macular hole formation = details: 200 μl intravitreal ophthalmic solution containing 5% histamine dihydrochloride; compared with untreated eyes
Method: The described methods contemplate the use of histamine to reduce ROM levels and so as to eliminate the conditions which result in macular hole formation. Following the preliminary examination, an intravitreal injection of histamine dihydrochloride is given to patient's affected eye. If both eyes are affected, they may be treated separately. The eye is injected with the histamine ophthalmic solution intravitreally to promote a reduction of ROM levels. The eye to be treated is injected intravitreally with 200 μl of a histamine ophthalmic solution containing 5% histamine dihydrochloride to prevent or reduce ROM mediate intraocular damage.

[3] = test system: patient suffering from PDR; details: approximately 100 μl of a 2% histamine-containing solution injected intraocularly, repeated every two weeks
From the text: As a preliminary step a patient is identified as suffering from PDR. […] The patient is monitored thereafter. The treatment is repeated every two weeks.

[4] = test system: diabetic patient manifesting preproliferative diabetic retinopathy; details: intravitreal ophthalmic solution containing 1% histamine diphosphate; compared to an untreated individual
Method: A diabetic patient manifesting preproliferative diabetic retinopathy is treated for this complication of diabetes mellitus through the intravitreal injection of a histamine compound.
This increased surveillance should include periodic retinal examinations and fluorescein angiograms to monitor the extent of venous beading, IRMA, and retinal ischemia.
When preproliferative diabetic retinopathy begins reaching the proliferative stage, treatment with an ROM inhibitor or scavenger is commenced. This stage is defined as the presence of venous beading in 2 or more quadrants, IRMA in one or more quadrants, and/or microaneurysm and dot hemorrhages in all quadrants. Once these indicia are present, the administration of a ROM inhibitor or scavenger is initiated.
The patient receives a full ophthalmic examination to establish a baseline of ocular health. […]
After treatment, the patient's eyes are examined on days one (1), two (2), seven (7), fifteen (15), thirty (30) and sixty (60). On each examination day, the patient is monitored. Additionally, the patient is monitored for posterior vitreous detachments using indirect ophthalmoscopy with scleral depression. Finally, the extent of PDR presented by the patient is continuously monitored through periodic retinal examinations and fluorescein angiograms to monitor the extent of venous beading, IRMA, and retinal ischemia.

## Cl.Cl.NCCc1c[nH]cn1 [histamine dihydrochloride]
[1]
  development of posterior vitreous detachments: reduction in the development of posterior vitreous detachments

## NC(=O)C1=CN([C@@H]2O[C@H](COP(=O)(O)OP(=O)(O)OC[C@H]3O[C@@H](n4cnc5c(N)ncnc54)[C@H](O)[C@@H]3O)[C@@H](O)[C@H]2O)C=CC1 [NADH]
NADPH oxidase
  Km: 450 µM

## superoxide dismutase
[2]
  ocular health: improvement in ocular health

## NCCc1c[nH]cn1 [histamine]
Macular hole formation
  incidence of macular hole formation: reduction in the incidence of macular hole formation
[3]
  symptoms associated with PDR: reduction in symptoms associated with PDR

## histamine diphosphate
[4]
  development of proliferative diabetic retinopathy: reduction in the development of proliferative diabetic retinopathy

## NC(=O)C1=CN([C@@H]2O[C@H](COP(=O)(O)OP(=O)(O)OC[C@H]3O[C@@H](n4cnc5c(N)ncnc54)[C@H](OP(=O)(O)O)[C@@H]3O)[C@@H](O)[C@H]2O)C=CC1 [NADPH]
NADPH oxidase
  Km: 45 µM
